Activity calls are given as the source filed them. The rule behind the calls is not given here.
Columns and labels:
[1] = target: T1, Solute carrier family 22 member 12 (Homo sapiens, UniProt Q96S37); test: Inhibition of human URAT1 transfected in HEK293 cells by measuring 14C-uric acid uptake preincubated for 30 mins followed by 14--uric acid addition and measured after 15 mins by liquid scintillation counter analysis; assay type: cell-based
T1 sequence (Q96S37 whole entry): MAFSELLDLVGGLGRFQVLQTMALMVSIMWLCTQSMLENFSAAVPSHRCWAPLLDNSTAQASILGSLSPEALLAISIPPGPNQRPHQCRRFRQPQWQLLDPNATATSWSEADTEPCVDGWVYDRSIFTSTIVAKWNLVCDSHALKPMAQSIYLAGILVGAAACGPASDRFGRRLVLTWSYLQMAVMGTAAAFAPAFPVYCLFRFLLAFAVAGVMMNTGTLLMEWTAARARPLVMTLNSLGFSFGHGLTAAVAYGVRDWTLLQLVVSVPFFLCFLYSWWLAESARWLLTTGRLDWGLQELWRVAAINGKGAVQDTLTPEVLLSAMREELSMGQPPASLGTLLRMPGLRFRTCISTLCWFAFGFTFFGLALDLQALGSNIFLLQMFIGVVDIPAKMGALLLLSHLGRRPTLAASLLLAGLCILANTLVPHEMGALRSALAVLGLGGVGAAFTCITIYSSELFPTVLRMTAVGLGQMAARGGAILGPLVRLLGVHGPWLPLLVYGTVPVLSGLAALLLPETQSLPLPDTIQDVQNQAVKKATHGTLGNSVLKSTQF

[2] = target: T1, Solute carrier family 22 member 12; test: Inhibition of human URAT1 transfected in HEK293 cells by measuring 14C-uric acid uptake at 5 uM preincubated for 30 mins followed by 14--uric acid addition and measured after 15 mins by liquid scintillation counter analysis relative to control; assay type: cell-based; details: 0.25 h, time 45 min
[3] = Tmax in male Sprague-Dawley rat at 10 mg/kg, po measured after 24 hrs by LC-MS/MS analysis; assay type: ADME, organism-based; details: in vivo
[4] = Renal toxicity in potassium oxonate-induced male Kunming mouse model assessed as reduction in BUN level in serum at 10 mg/kg,po via gavage administered 1 hr post-potassium oxonate challenge and measured after 7 days on day 7 potassium oxonate injected after 12 hrs fasting and measured followed by 1.5 hrs of compound administration by biochemical analyzer; assay type: organism-based; details: in vivo, 168 h, time 7 day
Mus musculus [5] = test: Anti-hyperuricemic activity against potassium oxonate-induced male Kunming mouse model assessed as reduction in serum uric acid level at 10 mg/kg, po via gavage administered 1 hr post-potassium oxonate challenge and measured after 7 days on day 7 potassium oxonate injected after 12 hrs fasting and measured followed by 1.5 hrs of compound administration; assay type: functional; details: time 7 day
Mus musculus [6] = test: Anti-hyperuricemic activity against potassium oxonate-induced male Kunming mouse model assessed as alleviation of glomerular ischemia in kidney at 10 mg/kg, po via gavage administered 1 hr post-potassium oxonate challenge and measured after 7 days on day 7 potassium oxonate injected after 12 hrs fasting and measured followed by 1.5 hrs of compound administration by H and E staining based analysis; assay type: functional, organism-based; details: time 7.0 day
[7] = AUC (0 to infinity) in male Sprague-Dawley rat at 10 mg/kg, po measured after 24 hrs by LC-MS/MS analysis; assay type: ADME, organism-based; details: in vivo
HK-2 [8] = test: Cytotoxicity against human HK-2 cells assessed as cell viability at <100 uM incubated for 24 hrs by MTT assay; assay type: toxicity, cell-based; details: hk-2, 24 h
Mus musculus [9] = test: Anti-hyperuricemic activity against potassium oxonate-induced male Kunming mouse model assessed as alleviation of casts formation in kidney at 10 mg/kg, po via gavage administered 1 hr post-potassium oxonate challenge and measured after 7 days on day 7 potassium oxonate injected after 12 hrs fasting and measured followed by 1.5 hrs of compound administration by H and E staining based analysis; assay type: functional, organism-based; details: time 7.0 day
[10] = Cmax in male Sprague-Dawley rat at 10 mg/kg, po measured after 24 hrs by LC-MS/MS analysis; assay type: ADME, organism-based; details: in vivo
Mus musculus [11] = test: Anti-hyperuricemic activity against potassium oxonate-induced male Kunming mouse model assessed as alleviation of renal tubule dilatation at 10 mg/kg, po via gavage administered 1 hr post-potassium oxonate challenge and measured after 7 days on day 7 potassium oxonate injected after 12 hrs fasting and measured followed by 1.5 hrs of compound administration by H and E staining based analysis; assay type: functional, organism-based; details: time 7.0 day
[12] = Renal toxicity in potassium oxonate-induced male Kunming mouse model assessed as reduction in CR level in serum at 10 mg/kg,po via gavage administered 1 hr post-potassium oxonate challenge and measured after 7 days on day 7 potassium oxonate injected after 12 hrs fasting and measured followed by 1.5 hrs of compound administration by biochemical analyzer; assay type: organism-based; details: in vivo, 168 h, time 7 day
Mus musculus [13] = test: Anti-hyperuricemic activity against potassium oxonate-induced male Kunming mouse model assessed as alleviation of shrinkage in kidney at 10 mg/kg, po via gavage administered 1 hr post-potassium oxonate challenge and measured after 7 days on day 7 potassium oxonate injected after 12 hrs fasting and measured followed by 1.5 hrs of compound administration by H and E staining based analysis; assay type: functional, organism-based; details: time 7.0 day
[14] = target: T2, Solute carrier family 2, facilitated glucose transporter member 9 (Homo sapiens) (UniProt Q9NRM0); test: Inhibition of GLUT9 (unknown origin) overexpressed in uric acid-induced HEK293 cells at 25 uM by patch clamp analysis relative to control; assay type: cell-based
T2 sequence (whole entry): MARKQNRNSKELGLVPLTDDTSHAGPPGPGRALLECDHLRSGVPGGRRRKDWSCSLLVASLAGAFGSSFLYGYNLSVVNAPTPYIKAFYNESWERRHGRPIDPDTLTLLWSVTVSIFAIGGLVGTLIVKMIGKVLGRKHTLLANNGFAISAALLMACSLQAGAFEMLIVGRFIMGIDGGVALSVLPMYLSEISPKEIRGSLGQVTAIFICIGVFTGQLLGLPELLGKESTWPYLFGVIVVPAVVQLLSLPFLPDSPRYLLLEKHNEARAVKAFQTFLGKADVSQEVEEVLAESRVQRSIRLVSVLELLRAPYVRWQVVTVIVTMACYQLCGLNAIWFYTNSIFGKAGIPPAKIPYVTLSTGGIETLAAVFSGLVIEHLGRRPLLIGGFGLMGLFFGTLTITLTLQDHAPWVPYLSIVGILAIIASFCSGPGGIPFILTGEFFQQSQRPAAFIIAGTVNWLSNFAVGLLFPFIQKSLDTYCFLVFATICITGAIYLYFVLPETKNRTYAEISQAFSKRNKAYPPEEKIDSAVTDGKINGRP

HK-2 [15] = test: Cytotoxicity against human HK-2 cells assessed as cell viability at 100 uM incubated for 48 hrs by MTT assay; assay type: toxicity, cell-based; details: hk-2, 48 h
[16] = MRT (0 to infinity) in male Sprague-Dawley rat at 10 mg/kg, po measured after 24 hrs by LC-MS/MS analysis; assay type: ADME, organism-based; details: in vivo
[17] = Half life in male Sprague-Dawley rat at 10 mg/kg, po measured after 24 hrs by LC-MS/MS analysis; assay type: ADME, organism-based; details: in vivo
Mus musculus [18] = test: Anti-hyperuricemic activity against potassium oxonate-induced male Kunming mouse model assessed as increase in urine uric acid level at 10 mg/kg, po via gavage administered 1 hr post-potassium oxonate challenge and measured after 7 days on day 7 potassium oxonate injected after 12 hrs fasting and measured followed by 1.5 hrs of compound administration (reference value: 481.6 microM); assay type: functional
[19] = Renal toxicity in potassium oxonate-induced male Kunming mouse model assessed as effect on kidney damage at 10 mg/kg,po via gavage administered 1 hr post-potassium oxonate challenge and measured after 7 days on day 7 potassium oxonate injected after 12 hrs fasting and measured followed by 1.5 hrs of compound administration; assay type: organism-based; details: in vivo, 168 h, time 7 day

C/C(=C\Cc1cccc2c1OC(c1cc(Br)cs1)CC2=O)C(=O)O (stereo not given)
IC50 [1]: 980 nM

CC(C)=CCc1c(O)ccc2c1OC(c1cc3ccccc3s1)CC2=O (stereo not given)
inhibition at 5 µM [2]: 13.4%

O=C(O)/C=C/Cc1cccc2c1OC(c1ccsc1)CC2=O (stereo not given)
IC50 [1]: 3590 nM

O=C(O)CCCc1c(O)ccc2c1OC(c1cccs1)CC2=O (stereo not given)
IC50 [1]: 2410 nM

C/C(=C\Cc1c(O)ccc2c1OC(c1ccsc1)CC2=O)C(=O)O (stereo not given)
IC50 [1]: 650 nM

O=C(O)/C=C/Cc1c(O)ccc2c1OC(c1ccc(O)cc1)CC2=O (stereo not given)
IC50 [1]: 3020 nM

Cc1ccc2c(c1C/C=C/S(=O)(=O)c1ccccc1)OC(c1ccsc1)CC2=O (stereo not given)
IC50 [1]: 4430 nM

C/C(=C\Cc1cccc2c1OC(c1csc3ccccc13)CC2=O)C(=O)O (stereo not given)
IC50 [1]: 950 nM

CC(C)=CCc1c(O)ccc2c1OC(c1ccc(Cl)cc1)CC2=O (stereo not given)
inhibition at 5 µM [2]: 11.3%

C/C(=C\Cc1cccc2c1OC(c1cc3ccccc3s1)CC2=O)C(=O)O (stereo not given)
IC50 [1]: 1640 nM

CC(C)=CCc1c(O)ccc2c1OC(c1cccs1)CC2=O (stereo not given)
inhibition at 5 µM [2]: 19.8%

CC(C)=CCc1c(O)ccc2c1OC(c1csc3ccccc13)CC2=O (stereo not given)
inhibition at 5 µM [2]: 32%

C/C(=C\Cc1c(O)ccc2c1OC(c1cccs1)CC2=O)C(=O)O (stereo not given)
Tmax [3]: 1.63 h | Activity [4]: Non-Toxic | Activity (Mus musculus [5]): 366.12 µM | Activity (Mus musculus [6]): Active | AUC(0-inf) [7]: 5560 ng·h/mL | Activity (HK-2 [8]): Toxic | Activity (Mus musculus [9]): Active | Cmax [10]: 1410 ng/mL | Activity (Mus musculus [11]): Active | Activity [12]: Non-Toxic | Activity (Mus musculus [13]): Active | inhibition [14]: 25.5% | IC50 [1]: 360 nM | Activity (HK-2 [15]): Non-Toxic | MRT inf [16]: 8.48 h | half-life [17]: 4.52 h | Activity (Mus musculus [18]; time 7 day): 630.52 µM | Activity [19]: Non-Toxic

C/C(=C\Cc1c(O)ccc2c1OC(c1csc3ccccc13)CC2=O)C(=O)O (stereo not given)
Activity [4]: Non-Toxic | Activity (Mus musculus [5]): 392.02 µM | Activity (Mus musculus [6]): Active | Activity (HK-2 [8]): Toxic | Activity (Mus musculus [9]): Active | Activity (Mus musculus [11]): Active | Activity [12]: Non-Toxic | Activity (Mus musculus [13]): Active | inhibition [14]: 8.33% | IC50 [1]: 230 nM | Activity (HK-2 [15]): Non-Toxic | Activity (Mus musculus [18]; time 7 day): 599.6 µM | Activity [19]: Non-Toxic

CC(C)=CCc1c(O)ccc2c1OC(c1ccc(Br)cc1)CC2=O (stereo not given)
inhibition at 5 µM [2]: 32.2%

C/C(=C\Cc1c(O)ccc2c1OC(c1ccc(O)cc1)CC2=O)C(=O)O (stereo not given)
IC50 [1]: 2110 nM

O=C(O)/C=C/Cc1cccc2c1OC(c1ccc(O)cc1)CC2=O (stereo not given)
IC50 [1]: 4240 nM

C/C(=C\Cc1c(O)ccc2c1OC(c1ccc(Br)cc1)CC2=O)C(=O)O (stereo not given)
IC50 [1]: 830 nM

O=C(O)/C=C/Cc1cccc2c1OC(c1ccc(Br)c3ccccc13)CC2=O (stereo not given)
IC50 [1]: 730 nM

O=C(O)/C=C/Cc1c(O)ccc2c1OC(c1cccs1)CC2=O (stereo not given)
IC50 [1]: 2180 nM

C/C(=C\Cc1c(O)ccc2c1OC(c1ccc(Br)c3ccccc13)CC2=O)C(=O)O (stereo not given)
Tmax [3]: 1.5 h | Activity [4]: Non-Toxic | Activity (Mus musculus [5]): 397.87 µM | Activity (Mus musculus [6]): Active | AUC(0-inf) [7]: 8270 ng·h/mL | Activity (HK-2 [8]): Toxic | Activity (Mus musculus [9]): Active | Cmax [10]: 1380 ng/mL | Activity (Mus musculus [11]): Active | Activity [12]: Non-Toxic | Activity (Mus musculus [13]): Active | inhibition [14]: 8.21% | IC50 [1]: 190 nM | Activity (HK-2 [15]): Non-Toxic | MRT inf [16]: 7.54 h | half-life [17]: 4.66 h | Activity (Mus musculus [18]; time 7.0 day): Active | Activity [19]: Non-Toxic

O=C(O)/C=C/Cc1cccc2c1OC(c1cc3ccccc3s1)CC2=O (stereo not given)
IC50 [1]: 1890 nM

C/C(=C\Cc1cccc2c1OC(c1ccc(O)cc1)CC2=O)C(=O)O (stereo not given)
IC50 [1]: 2680 nM

C/C(=C\Cc1cccc2c1OC(c1ccsc1)CC2=O)C(=O)O (stereo not given)
IC50 [1]: 2180 nM

O=C(O)CSc1nnc(Br)n1-c1ccc(C2CC2)c2ccccc12
Activity [4]: Non-Toxic | Activity (Mus musculus [5]): 380.14 µM | Activity (Mus musculus [6]): inactive | Activity (Mus musculus [9]): inactive | Activity (Mus musculus [11]): inactive | Activity [12]: Non-Toxic | Activity (Mus musculus [13]): inactive | Activity (Mus musculus [18]; time 7 day): 696.8 µM | Activity [19]: Non-Toxic

C/C(=C\Cc1c(O)ccc2c1OC(c1ccc(Cl)cc1)CC2=O)C(=O)O (stereo not given)
IC50 [1]: 2860 nM

CC(C)=CCc1c(O)ccc2c1OC(c1ccsc1)CC2=O (stereo not given)
inhibition at 5 µM [2]: 72.3%

CC(C)=CCc1c(O)ccc2c1OC(c1cccc(F)c1)CC2=O (stereo not given)
inhibition at 5 µM [2]: 22.7%

CC(C)=CCc1c(O)ccc2c1OC(c1ccc(F)cc1)CC2=O (stereo not given)
inhibition at 5 µM [2]: 4.4%

O=C(O)/C=C/Cc1cccc2c1OC(c1cccs1)CC2=O (stereo not given)
IC50 [1]: 2500 nM

O=C(O)C/C=C/Cc1c(O)ccc2c1OC(c1csc3ccccc13)CC2=O (stereo not given)
IC50 [1]: 650 nM

— ChEMBL document CHEMBL5614401 (Eur J Med Chem, 2024)
